In the supplement of paper PMC10307832:

Key:
Experiment in all cases: relative viability (nuclei count vs DMSO), 5 days (fraction); higher = more cells survive
[1] = system: NCI-H647
Method in brief: (§1)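 After 5 days of treatment, lung cancer cells in 1536-well plates were fixed and stained in a single step (final 0.05% Triton X-100, 1% formaldehyde, 1 ug/ml Hoechst) and their nuclei counted on 4× images. Treatment had been applied by pin tool the day after seeding as one drug alone or as a fixed anchor-drug dose with five library-drug doses (not always all listed) in √10 steps. Relative viability is the nuclei count of treated wells divided by that of vehicle wells, and values are medians of duplicate plates.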

[2] = system: NCI-H1651
Method in brief: as §1

[3] = system: UMC-11
Method in brief: as §1

[4] = system: NCI-H1650
Method in brief: as §1

[5] = system: HCC-78
Method in brief: as §1

[6] = system: LCLC-103H
Method in brief: as §1

[7] = system: LK-2
Method in brief: as §1

[8] = system: LCLC-97TM1
Method in brief: as §1

[9] = system: NCI-H1793
Method in brief: as §1

[10] = system: COR-L23
Method in brief: as §1

[11] = system: A-427
Method in brief: as §1

[12] = system: NCI-H522
Method in brief: as §1

[13] = system: PC-3 [JPC-3]
Method in brief: as §1

[14] = system: LOU-NH91
Method in brief: as §1

[15] = system: LXF-289
Method in brief: as §1

[16] = system: NCI-H838
Method in brief: as §1

[17] = system: 201T
Method in brief: as §1

[18] = system: HARA
Method in brief: as §1

[19] = system: NCI-H2347
Method in brief: as §1

[20] = system: NCI-H2405
Method in brief: as §1

[21] = system: NCI-H23
Method in brief: as §1

[22] = system: NCI-H520
Method in brief: as §1

[23] = system: RERF-LC-KJ
Method in brief: as §1

## Cc1cn(-c2cc(NC(=O)c3ccc(C)c(Nc4nccc(-c5cccnc5)n4)c3)cc(C(F)(F)F)c2)cn1 [Nilotinib] + CC(=O)Nc1cccc(-n2c(=O)n(C3CC3)c(=O)c3c(Nc4ccc(I)cc4F)n(C)c(=O)c(C)c32)c1 [Trametinib] (partner 0.02 µM)
[1]; first compound 0.001 µM
  relative viability: 0.363
[1]; first compound 0.003162 µM
  relative viability: 0.614
[1]; first compound 0.01 µM
  relative viability: 0.352
[1]; first compound 0.03162 µM
  relative viability: 0.18
[1]; first compound 0.1 µM
  relative viability: 0.254
[2]; first compound 0.001 µM
  relative viability: 0.828
[2]; first compound 0.003162 µM
  relative viability: 0.916
[2]; first compound 0.01 µM
  relative viability: 0.951
[2]; first compound 0.03162 µM
  relative viability: 0.761
[2]; first compound 0.1 µM
  relative viability: 0.851
[3]; first compound 0.001 µM
  relative viability: 0.635
[3]; first compound 0.003162 µM
  relative viability: 0.801
[3]; first compound 0.01 µM
  relative viability: 0.742
[3]; first compound 0.03162 µM
  relative viability: 0.446
[3]; first compound 0.1 µM
  relative viability: 0.317
[4]; first compound 0.001 µM
  relative viability: 0.608
[4]; first compound 0.003162 µM
  relative viability: 0.735
[4]; first compound 0.01 µM
  relative viability: 0.531
[4]; first compound 0.03162 µM
  relative viability: 0.471
[4]; first compound 0.1 µM
  relative viability: 0.327
[5]; first compound 0.001 µM
  relative viability: 0.754
[5]; first compound 0.003162 µM
  relative viability: 0.597
[5]; first compound 0.01 µM
  relative viability: 0.956
[5]; first compound 0.03162 µM
  relative viability: 0.649
[5]; first compound 0.1 µM
  relative viability: 0.863
[6]; first compound 0.001 µM
  relative viability: 0.588
[6]; first compound 0.003162 µM
  relative viability: 0.773
[6]; first compound 0.01 µM
  relative viability: 0.75
[6]; first compound 0.03162 µM
  relative viability: 0.579
[6]; first compound 0.1 µM
  relative viability: 0.728
[7]; first compound 0.001 µM
  relative viability: 0.514
[7]; first compound 0.003162 µM
  relative viability: 0.515
[7]; first compound 0.01 µM
  relative viability: 0.687
[7]; first compound 0.03162 µM
  relative viability: 0.46
[7]; first compound 0.1 µM
  relative viability: 0.608
[8]; first compound 0.001 µM
  relative viability: 0.164
[8]; first compound 0.003162 µM
  relative viability: 0.18
[8]; first compound 0.01 µM
  relative viability: 0.152
[8]; first compound 0.03162 µM
  relative viability: 0.114
[8]; first compound 0.1 µM
  relative viability: 0.227
[9]; first compound 0.001 µM
  relative viability: 0.403
[9]; first compound 0.003162 µM
  relative viability: 0.396
[9]; first compound 0.01 µM
  relative viability: 0.328
[9]; first compound 0.03162 µM
  relative viability: 0.239
[9]; first compound 0.1 µM
  relative viability: 0.251
[10]; first compound 0.001 µM
  relative viability: 0.472
[10]; first compound 0.003162 µM
  relative viability: 0.419
[10]; first compound 0.01 µM
  relative viability: 0.384
[10]; first compound 0.03162 µM
  relative viability: 0.283
[10]; first compound 0.1 µM
  relative viability: 0.266
[11]; first compound 0.001 µM
  relative viability: 0.812
[11]; first compound 0.003162 µM
  relative viability: 0.567
[11]; first compound 0.01 µM
  relative viability: 0.73
[11]; first compound 0.03162 µM
  relative viability: 0.522
[11]; first compound 0.1 µM
  relative viability: 0.556
[12]; first compound 0.01 µM
  relative viability: 0.627
[12]; first compound 0.03162 µM
  relative viability: 0.671
[12]; first compound 0.1 µM
  relative viability: 0.596
[13]; first compound 0.001 µM
  relative viability: 0.847
[13]; first compound 0.01 µM
  relative viability: 0.7
[13]; first compound 0.03162 µM
  relative viability: 0.523
[13]; first compound 0.1 µM
  relative viability: 0.591
[14]; first compound 0.001 µM
  relative viability: 0.799
[14]; first compound 0.003162 µM
  relative viability: 0.818
[14]; first compound 0.01 µM
  relative viability: 0.846
[14]; first compound 0.03162 µM
  relative viability: 0.77
[14]; first compound 0.1 µM
  relative viability: 0.765
[15]; first compound 0.001 µM
  relative viability: 0.686
[15]; first compound 0.003162 µM
  relative viability: 0.699
[15]; first compound 0.01 µM
  relative viability: 0.701
[15]; first compound 0.03162 µM
  relative viability: 0.577
[15]; first compound 0.1 µM
  relative viability: 0.466
[16]; first compound 0.001 µM
  relative viability: 0.462
[16]; first compound 0.003162 µM
  relative viability: 0.617
[16]; first compound 0.01 µM
  relative viability: 0.567
[16]; first compound 0.03162 µM
  relative viability: 0.339
[16]; first compound 0.1 µM
  relative viability: 0.494
[17]; first compound 0.001 µM
  relative viability: 0.709
[17]; first compound 0.003162 µM
  relative viability: 0.749
[17]; first compound 0.01 µM
  relative viability: 0.739
[17]; first compound 0.03162 µM
  relative viability: 0.717
[17]; first compound 0.1 µM
  relative viability: 0.728
[18]; first compound 0.001 µM
  relative viability: 0.43
[18]; first compound 0.003162 µM
  relative viability: 0.468
[18]; first compound 0.01 µM
  relative viability: 0.522
[18]; first compound 0.03162 µM
  relative viability: 0.402
[18]; first compound 0.1 µM
  relative viability: 0.289
[19]; first compound 0.001 µM
  relative viability: 0.267
[19]; first compound 0.003162 µM
  relative viability: 0.23
[19]; first compound 0.01 µM
  relative viability: 0.234
[19]; first compound 0.03162 µM
  relative viability: 0.268
[19]; first compound 0.1 µM
  relative viability: 0.271
[20]; first compound 0.001 µM
  relative viability: 0.504
[20]; first compound 0.003162 µM
  relative viability: 0.406
[20]; first compound 0.01 µM
  relative viability: 0.457
[20]; first compound 0.03162 µM
  relative viability: 0.325
[20]; first compound 0.1 µM
  relative viability: 0.327
[21]; first compound 0.001 µM
  relative viability: 0.319
[21]; first compound 0.01 µM
  relative viability: 0.292
[21]; first compound 0.03162 µM
  relative viability: 0.202
[21]; first compound 0.1 µM
  relative viability: 0.197
[22]; first compound 0.001 µM
  relative viability: 0.612
[22]; first compound 0.003162 µM
  relative viability: 0.747
[22]; first compound 0.01 µM
  relative viability: 0.738
[22]; first compound 0.03162 µM
  relative viability: 0.392
[22]; first compound 0.1 µM
  relative viability: 0.39
[23]; first compound 0.001 µM
  relative viability: 0.79
[23]; first compound 0.003162 µM
  relative viability: 0.985
[23]; first compound 0.01 µM
  relative viability: 0.985
[23]; first compound 0.03162 µM
  relative viability: 0.764
[23]; first compound 0.1 µM
  relative viability: 0.811
